Experiments:
Test in all cases: relative viability (nuclei count vs DMSO), 5 days (fraction); higher = more cells survive
Tanzisertib + OSI-027 = compound: O[C@H]1CC[C@H](Nc2ncc3nc(Nc4c(F)cc(F)cc4F)n([C@H]4CCOC4)c3n2)CC1 [Tanzisertib] + COc1cccc2cc(-c3nc([C@H]4CC[C@H](C(=O)O)CC4)n4ncnc(N)c34)[nH]c12 [OSI-027] (partner 0.5 µM)
Outline: (§1)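 Lung cancer cell lines were seeded in 1536-well plates and dosed by pin tool the next day, with either a single drug or a fixed anchor-drug dose combined with five library-drug doses (not always all listed) spaced in √10 steps. Five days later, one step fixed the cells and stained their nuclei (final 0.05% Triton X-100, 1% formaldehyde, 1 ug/ml Hoechst), and nuclei were counted on 4× images. Relative viability is the nuclei count in treated wells divided by the count in vehicle wells, and each value is the median of duplicate plates.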

Tanzisertib + Pemetrexed = compound: O[C@H]1CC[C@H](Nc2ncc3nc(Nc4c(F)cc(F)cc4F)n([C@H]4CCOC4)c3n2)CC1 [Tanzisertib] + Nc1nc2[nH]cc(CCc3ccc(C(=O)N[C@@H](CCC(=O)O)C(=O)O)cc3)c2c(=O)[nH]1 [Pemetrexed] (partner 0.2 µM)
Outline: as §1

[1] = compound: C[C@@H](N)c1ccc(C(=O)Nc2ccnc3[nH]ccc23)cc1 + C[C@]1(O)C[C@@H](c2nc(-c3ccc4ccc(-c5ccccc5)nc4c3)c3c(N)nccn32)C1 [Linsitinib] (partner 1 µM)
Outline: as §1

Tanzisertib + Luminespib = compound: O[C@H]1CC[C@H](Nc2ncc3nc(Nc4c(F)cc(F)cc4F)n([C@H]4CCOC4)c3n2)CC1 [Tanzisertib] + CCNC(=O)c1noc(-c2cc(C(C)C)c(O)cc2O)c1-c1ccc(CN2CCOCC2)cc1 [Luminespib] (partner 0.01 µM)
Outline: as §1

| Cell Line | relative viability (Tanzisertib + OSI-027; first compound 0.08 µM) | relative viability (Tanzisertib + OSI-027; first compound 0.253 µM) | relative viability (Tanzisertib + OSI-027; first compound 0.8 µM) | relative viability (Tanzisertib + OSI-027; first compound 2.53 µM) | relative viability (Tanzisertib + OSI-027; first compound 8 µM) | relative viability (Tanzisertib + Pemetrexed; first compound 0.253 µM) | relative viability (Tanzisertib + Pemetrexed; first compound 0.8 µM) | relative viability (Tanzisertib + Pemetrexed; first compound 2.53 µM) | relative viability (Tanzisertib + Pemetrexed; first compound 8 µM) | relative viability ([1]; first compound 0.04 µM) | relative viability ([1]; first compound 0.1265 µM) | relative viability ([1]; first compound 0.4 µM) | relative viability ([1]; first compound 4 µM) | relative viability (Tanzisertib + Luminespib; first compound 0.08 µM) | relative viability (Tanzisertib + Luminespib; first compound 0.253 µM) | relative viability (Tanzisertib + Luminespib; first compound 0.8 µM) | relative viability (Tanzisertib + Luminespib; first compound 2.53 µM) | relative viability (Tanzisertib + Luminespib; first compound 8 µM) | relative viability (Tanzisertib + Pemetrexed; first compound 0.08 µM) | relative viability ([1]; first compound 1.265 µM) |
| --- | --- | --- | --- | --- | --- | --- | --- | --- | --- | --- | --- | --- | --- | --- | --- | --- | --- | --- | --- | --- |
| HCC-366 | 0.968 | 0.888 | 0.942 | 0.977 | 0.051 | 0.201 | 0.152 | 0.204 | 0.328 | 0.615 | 0.63 | 0.785 | 0.49 |  |  |  |  |  |  |  |
| HCC-827 | 0.857 | 0.763 | 0.775 | 0.678 | 0.44 | 0.229 | 0.25 | 0.251 | 0.175 | 0.972 | 0.94 | 0.911 | 0.843 | 0.668 | 0.594 | 0.642 | 0.588 | 0.259 | 0.266 | 0.925 |
| HOP-62 | 0.845 | 0.868 | 0.76 | 0.833 | 0.848 | 0.346 | 0.31 | 0.315 | 0.353 | 0.972 | 0.983 | 0.88 | 0.954 | 0.966 | 0.924 | 0.886 | 0.91 | 0.883 | 0.301 | 1.03 |
| IA-LM |  |  |  |  |  |  |  |  |  | 0.801 | 0.665 | 0.847 | 0.759 |  |  |  |  |  |  | 0.904 |
| LC-2-ad | 1.02 | 0.744 | 0.911 | 0.915 | 0.606 | 0.292 | 0.275 | 0.272 | 0.294 | 0.849 | 0.922 | 0.877 | 0.615 | 1.15 | 1.04 | 1.03 | 1.07 | 1.05 | 0.282 | 0.83 |
| LCLC-97TM1 | 0.541 | 0.435 | 0.495 | 0.368 | 0.517 | 0.164 | 0.146 | 0.169 | 0.173 | 0.192 | 0.2 | 0.202 | 0.349 | 0.956 | 0.669 | 0.803 | 0.824 | 0.788 | 0.172 | 0.29 |
| LCLC-103H | 0.458 | 0.44 | 0.438 | 0.427 | 0.509 | 0.472 | 0.451 | 0.432 | 0.468 | 1.18 | 1.06 | 1.2 | 1.11 | 1 | 0.888 | 0.941 | 1.05 | 1.12 | 0.521 | 1.01 |
| LK-2 | 0.26 | 0.209 | 0.193 | 0.16 | 0.186 | 0.273 | 0.161 | 0.234 | 0.244 | 0.822 | 0.542 | 0.809 | 0.721 | 0.224 | 0.187 | 0.191 | 0.192 | 0.181 | 0.294 | 0.554 |
| LOU-NH91 | 0.785 | 0.758 | 0.756 | 0.671 | 0.489 | 0.42 | 0.399 | 0.403 | 0.387 | 0.831 | 0.979 | 0.778 | 0.702 | 0.431 | 0.345 | 0.371 | 0.33 | 0.349 | 0.42 | 0.726 |
| LU99A | 0.305 | 0.316 | 0.296 | 0.29 | 0.302 | 0.191 | 0.172 | 0.159 | 0.19 | 0.607 | 0.569 | 0.586 | 0.509 | 0.204 | 0.238 | 0.239 | 0.26 | 0.227 | 0.167 | 0.617 |
| LXF-289 | 0.801 | 0.818 | 0.76 | 0.856 | 0.644 | 0.923 | 1.01 | 0.915 | 1.02 | 1.02 | 0.995 | 0.997 | 0.88 | 0.66 | 0.621 | 0.684 | 0.675 | 0.643 | 0.902 | 1.09 |
| NCI-H522 | 0.802 | 0.831 | 0.748 | 0.696 | 0.626 | 1.07 | 0.915 | 1.07 | 1.05 |  |  |  |  | 1.38 | 1.27 | 0.966 | 1.16 | 1.17 | 1.04 |  |
| NCI-H727 | 0.618 | 0.564 | 0.643 | 0.483 | 0.647 |  |  |  |  | 0.135 | 0.559 | 0.493 | 0.785 | 0.365 | 0.345 | 0.339 | 0.375 | 0.728 |  | 0.736 |
| NCI-H1299 |  |  |  |  |  |  |  |  |  | 0.945 | 0.977 | 0.939 | 0.85 |  |  |  |  |  |  | 0.956 |
| NCI-H1623 | 0.495 | 0.448 | 0.453 | 0.437 | 0.432 |  |  |  |  |  |  |  |  | 0.617 | 0.443 | 0.484 | 0.502 | 0.624 |  |  |
| NCI-H1648 | 0.275 | 0.245 | 0.239 | 0.319 | 0.223 | 0.698 | 0.775 | 0.754 | 0.735 |  |  |  |  |  |  |  |  |  | 0.689 |  |
| NCI-H1650 | 0.644 | 0.876 | 0.735 | 0.539 | 0.52 | 0.351 | 0.511 | 0.33 | 0.329 |  |  |  |  | 0.233 | 0.215 | 0.206 | 0.2 | 0.196 | 0.349 |  |
| NCI-H1703 |  |  |  |  |  |  |  |  |  | 0.695 | 0.964 | 0.54 | 0.536 |  |  |  |  |  |  |  |
| NCI-H2170 | 0.765 | 0.771 | 0.729 | 0.735 | 0.588 | 0.292 | 0.282 | 0.265 | 0.251 |  |  |  |  | 0.857 | 0.739 | 0.633 | 0.684 | 0.78 | 0.265 |  |
| NCI-H2342 | 0.663 | 0.718 | 0.571 | 0.537 | 0.583 | 0.749 | 0.768 | 0.708 | 0.668 |  |  |  |  | 0.688 | 0.828 | 0.975 | 0.759 | 0.888 | 0.867 |  |
| SW 900 | 0.644 | 0.588 | 0.511 | 0.866 | 0.556 | 0.51 | 0.501 | 0.451 | 0.464 |  |  |  |  | 0.169 | 0.188 | 0.151 | 0.207 | 0.168 |  |  |

Source: the supplement of paper PMC10307832
